Some test systems named below: SK-MEL-5; U-251; HOP-92; RPMI-8226; NCI-H23; SK-MEL-2; KM12; HT-29; Hs-578T; UO-31; HL-60; EKVX; MDA-MB-231; NCI-H226; SK-MEL-28; SF-295; SNB-19; SF-539; SNB-75.
Experiment in all cases: NCI-60 cell line screen, 48 h

We go through ten molecules from ChEMBL document CHEMBL1201862, “PubChem BioAssay data set” (2004).

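In this assay, cells in 96-well plates receive the compound at five concentrations for 48 hours. Endpoints are linearly interpolated between the surrounding concentrations. GI50 marks 50% less growth.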 The source made the active and inactive calls. Rule as the data show it: active = GI50 up to about 1.1 µM and inactive = higher. Where only a bound is given, the exact number is not on record here.

On to `COc1ccc(C(=O)NCCN(C)C)c2nc3ccccc3cc12`, for which the GI50 in the test with SK-MEL-5 is 1.23 µM (inactive); in the test on U-251, 0.64 µM (active); in the test with HOP-92, 1.32 µM (inactive); in the test with RPMI-8226, 0.354 µM (active); in the test with NCI-H23 it was 0.366 µM (active); in the test with SK-MEL-2 it was 3.01 µM (inactive). Besides, the GI50 in the test with KM12 was 1.34 µM (inactive); in the test with HT-29, 0.596 µM (active); in the test with Hs-578T it was 1.4 µM (inactive); in the test on UO-31, 0.532 µM (active); with HL-60, 0.11 µM (active); in the test on EKVX, 1.66 µM (inactive). The GI50 in the test on MDA-MB-231 was 2.12 µM (inactive); in the test with NCI-H226, 0.785 µM (active); with SK-MEL-28 it was 2 µM (inactive); in the test with SF-295 it was 0.653 µM (active); with SNB-19 it was 0.741 µM (active); in the test on SF-539 it was 1.31 µM (inactive). Moreover, the GI50 in the test with SNB-75 is 4.68 µM (inactive).

On to `COc1ccc(/C(=N\Nc2ccccn2)c2ccccn2)cc1`, for which the GI50 in the test on SK-MEL-5 was 0.0303 µM (active); with U-251, < 0.0178 µM (active); in the test on HOP-92, < 0.045 µM (active); in the test on RPMI-8226, < 0.0268 µM (active); in the test with NCI-H23, 0.0272 µM (active); with SK-MEL-2, 3.37 µM (inactive). Further, the GI50 in the test with KM12 is 0.16 µM (active); with HT-29, < 0.01 µM (active); in the test with Hs-578T it was 0.625 µM (active); in the test with UO-31 it was 0.0405 µM (active); in the test on HL-60 it was < 0.01 µM (active); in the test on EKVX, < 0.01 µM (active). Also, the GI50 is < 0.0193 µM (active) with MDA-MB-231; < 0.01 µM (active) with NCI-H226; 0.336 µM (active) in the test with SK-MEL-28; 0.301 µM (active) with SF-295; 0.544 µM (active) with SNB-19; 0.0627 µM (active) with SF-539. For the same molecule, the GI50 in the test with SNB-75 is 0.414 µM (active).

Consider `O=c1c(F)cn(Cc2c(Cl)cccc2Cl)c(=O)n1Cc1c(Cl)cccc1Cl`, for which the GI50 is 18.1 µM (inactive) with SK-MEL-5; > 31.6 µM (inactive) in the test on U-251; 20.3 µM (inactive) in the test with HOP-92; > 31.6 µM (inactive) with RPMI-8226; 27.7 µM (inactive) with NCI-H23; > 31.6 µM (inactive) in the test on SK-MEL-2. Besides, the GI50 with KM12 is > 31.6 µM (inactive); in the test with HT-29 it was 18.3 µM (inactive); with Hs-578T it was > 31.6 µM (inactive); with UO-31 it was 18.1 µM (inactive); with HL-60, 20 µM (inactive); in the test on EKVX it was 21.4 µM (inactive). For the same molecule, the GI50 is > 31.6 µM (inactive) with MDA-MB-231; > 71.6 µM (inactive) in the test with NCI-H226; > 31.6 µM (inactive) in the test with SK-MEL-28; > 31.6 µM (inactive) with SF-295; > 100 µM (inactive) with SNB-19; > 31.6 µM (inactive) in the test with SF-539. The GI50 with SNB-75 is 16.5 µM (inactive).

For the molecule `CN(C)CCNCc1ccc2c(-c3ccccc3)nc3cc(Cl)c(Cl)cc3n12`, the GI50 was 8.32 µM (inactive) in the test on SK-MEL-5; 9.08 µM (inactive) in the test on U-251; 13.1 µM (inactive) in the test on HOP-92; 12.8 µM (inactive) in the test on RPMI-8226; 14.6 µM (inactive) in the test on NCI-H23; 9.57 µM (inactive) in the test on SK-MEL-2. In addition, the GI50 in the test on KM12 is 9.73 µM (inactive); with HT-29, 8.3 µM (inactive); with Hs-578T, 17.9 µM (inactive); with UO-31, 7.83 µM (inactive); in the test with HL-60, 2.01 µM (inactive); in the test on EKVX it was 15.3 µM (inactive). Moreover, the GI50 is 10.2 µM (inactive) with MDA-MB-231; 17.9 µM (inactive) in the test on NCI-H226; 5.78 µM (inactive) in the test on SK-MEL-28; 13.1 µM (inactive) with SF-295; 14 µM (inactive) in the test on SNB-19; 7.35 µM (inactive) in the test on SF-539. For the same molecule, the GI50 in the test on SNB-75 was 7.46 µM (inactive).

Take `C1CSC2=C(S1)SC1=C(S2)SC(=C2SC3=C(SC4=C(SCCS4)S3)S2)S1`: the GI50 in the test with SK-MEL-5 was > 100 µM (inactive); in the test with U-251 it was > 100 µM (inactive); in the test with HOP-92 it was > 100 µM (inactive); in the test with RPMI-8226, > 100 µM (inactive); with NCI-H23, > 100 µM (inactive); with SK-MEL-2 it was 74.1 µM (inactive). Besides, the GI50 was > 100 µM (inactive) in the test with KM12; > 100 µM (inactive) in the test with HT-29; > 100 µM (inactive) in the test on Hs-578T; > 100 µM (inactive) in the test with UO-31; 23.9 µM (inactive) with HL-60; > 100 µM (inactive) with EKVX. Besides, the GI50 with MDA-MB-231, in the test on NCI-H226, in the test with SK-MEL-28, in the test on SF-295, in the test on SNB-19 and with SF-539 was > 100 µM (inactive) throughout. Further, in the test with SNB-75, the GI50 was 37.7 µM (inactive).

Regarding `Clc1ccc(OCC2NC3C=CC32)cn1` (stereo not given), the GI50 in the test with SK-MEL-5 was > 100 µM (inactive); in the test with U-251, > 100 µM (inactive); in the test with HOP-92, 67 µM (inactive); in the test on RPMI-8226, 34.4 µM (inactive); in the test with NCI-H23 it was > 100 µM (inactive); in the test on SK-MEL-2, > 100 µM (inactive). The GI50 with KM12 is > 100 µM (inactive); in the test on HT-29 it was 50.1 µM (inactive); in the test with Hs-578T, > 100 µM (inactive); in the test with UO-31, 44.7 µM (inactive); with HL-60, > 100 µM (inactive); in the test with EKVX, 24.9 µM (inactive). Moreover, the GI50 in the test on MDA-MB-231, in the test on NCI-H226, in the test with SK-MEL-28, with SF-295, with SNB-19 and with SF-539 was > 100 µM (inactive) in each case. The GI50 in the test with SNB-75 was > 100 µM (inactive).

On to `COC(=O)C1=C(O)C(C(=O)OC)[C@]2(O)[C@H](C(=O)OC)[C@H]1C[C@@H](c1cccc(OC)c1)[C@H]2C(=O)OC` (stereo not given in full), for which the GI50 with SK-MEL-5 is 23.5 µM (inactive); in the test on U-251, 24.2 µM (inactive); with HOP-92, 47 µM (inactive); in the test on RPMI-8226, 19.4 µM (inactive); with NCI-H23, 30.4 µM (inactive); with SK-MEL-2, 17.7 µM (inactive). Also, the GI50 with KM12 was 27.7 µM (inactive); in the test on HT-29 it was 34.9 µM (inactive); in the test on Hs-578T, 18.7 µM (inactive); with UO-31, 13.9 µM (inactive); in the test with HL-60, 0.207 µM (active); in the test on EKVX, 29.5 µM (inactive). Besides, the GI50 was 27.2 µM (inactive) in the test on MDA-MB-231; 28.8 µM (inactive) with NCI-H226; 37.6 µM (inactive) in the test with SK-MEL-28; 35.8 µM (inactive) with SF-295; 25.9 µM (inactive) with SNB-19; 32.3 µM (inactive) with SF-539. In addition, in the test on SNB-75, the GI50 is 27.5 µM (inactive).

Take `CC(=O)O[C@H]1C[C@H](O[C@H]2[C@@H](O)C[C@H](O[C@H]3[C@@H](O)C[C@H](O[C@H]4CC[C@@]5(C)[C@H](CC[C@@H]6[C@@H]5CC[C@]5(O)[C@@H](C7=CC(=O)OC7)CC[C@]65O)C4)O[C@@H]3C)O[C@@H]2C)O[C@H](C)[C@H]1O[C@@H]1O[C@H](CO)[C@@H](O)[C@H](O)[C@H]1O`: the GI50 with SK-MEL-5 was 0.223 µM (active); in the test with U-251, 0.427 µM (active); in the test on HOP-92 it was 0.792 µM (active); in the test with RPMI-8226, 0.462 µM (active); in the test with NCI-H23, 0.137 µM (active); with SK-MEL-2 it was 0.498 µM (active). Moreover, the GI50 was 0.565 µM (active) in the test with KM12; 0.286 µM (active) with HT-29; 0.348 µM (active) with Hs-578T; 0.391 µM (active) in the test with UO-31; 0.223 µM (active) in the test with HL-60; 0.233 µM (active) in the test with EKVX. Further, the GI50 with MDA-MB-231 is 2.35 µM (inactive); in the test with NCI-H226, 1.29 µM (inactive); with SK-MEL-28 it was 1.5 µM (inactive); in the test with SF-295 it was 0.344 µM (active); with SNB-19, 0.771 µM (active); in the test on SF-539, 0.185 µM (active). Also, the GI50 in the test on SNB-75 was 0.908 µM (active).

Take `O=C1C=CC(=O)N1c1ccc(I)cc1`: the GI50 was 18.6 µM (inactive) with SK-MEL-5; 23.6 µM (inactive) in the test on U-251; 21.3 µM (inactive) with HOP-92; 6.11 µM (inactive) with RPMI-8226; 23.8 µM (inactive) in the test with NCI-H23; 20.4 µM (inactive) with SK-MEL-2. In addition, the GI50 with KM12 was 21.4 µM (inactive); in the test on HT-29, 18.9 µM (inactive); in the test with Hs-578T it was 23.4 µM (inactive); in the test with UO-31, 18.9 µM (inactive); in the test on HL-60, 2.84 µM (inactive); in the test on EKVX, 23.3 µM (inactive). The GI50 is 23.6 µM (inactive) with MDA-MB-231; 22.9 µM (inactive) in the test on NCI-H226; 18.5 µM (inactive) with SK-MEL-28; 20.5 µM (inactive) in the test on SF-295; > 44.8 µM (inactive) in the test with SNB-19; 22.5 µM (inactive) in the test on SF-539. For the same molecule, in the test with SNB-75, the GI50 is 21.8 µM (inactive).

As to `CNc1cccnc1/C=N/N=C(/N)S`, the GI50 is 3.2 µM (inactive) with SK-MEL-5; 1.87 µM (inactive) in the test with U-251; 0.849 µM (active) in the test with HOP-92; > 4.59 µM (inactive) in the test with RPMI-8226; 0.403 µM (active) in the test with NCI-H23; 9.89 µM (inactive) in the test on SK-MEL-2. Further, the GI50 in the test on KM12 was 4.52 µM (inactive); in the test with HT-29, 2.45 µM (inactive); in the test on Hs-578T, > 10 µM (inactive); in the test with UO-31 it was 1.78 µM (inactive); in the test with HL-60, 0.564 µM (active); in the test on EKVX, 4.39 µM (inactive). Further, the GI50 is 6.38 µM (inactive) in the test on MDA-MB-231; 2.75 µM (inactive) in the test with NCI-H226; 7.74 µM (inactive) in the test on SK-MEL-28; 2 µM (inactive) in the test on SF-295; > 10 µM (inactive) in the test on SNB-19; 0.279 µM (active) with SF-539. In the test on SNB-75, the GI50 was 0.863 µM (active).
